Laboratory results from patent US9254341B2, “Methods of manufacture of pteroyl-amino acid-fluorescent dyes” (On Target Laboratories, LLC, priority 2013, dated 2016).
Entries after “also recorded” stand apart in the source; their conditions may differ.

Legend:
[1] = Stability of OTL-0038 liquid, achiral HPLC; assay type: physicochemical; settings: for Achiral HPLC: Liquid 5 mg per ml, 2 ml fill, PBS, 1 month; for stability of the liquid: 5° C.
Experimental: (§1) Stability data of Pte-L Tyrosine-S0456 (OTL-0038):
At 40° C. the liquid lost 8.6% at 270 nm and 1% at 774 nm. At room temperature the liquid lost about 1.4% at 270 nm and 0.5% at 774 nm.

[2] = Stability of OTL-0038 lyophilized product, achiral HPLC; assay type: physicochemical; settings: for Achiral HPLC: Lyophilization 5 mg per ml, 2 ml fill, Water, 1 month; for loss of the lyophilized product: 40° C.; for stability of the lyophilized product: first month
Description: as §1

folate receptors = molecular target: T1, folate receptors (Homo sapiens, UniProt P15328); assay: Competitive binding with [3H] folic acid on KB cells that overexpress FR-alpha; settings: for Kd: read-out: dissociation constant (Kd); for Relative binding affinity: relative affinity of folic acid=1, molar ratio required to displace 50% of [3H] folic acid
T1 construct: KB cells that overexpress FR-α were seeded in 24-well (100,000 cells/well) Falcon plates; endogenous in cells; host or cells: KB cells (ATCC), grown in folate-free RPMI 1640
Experimental: (§2) KB cells (a human nasopharyngeal cell line) were obtained from American type culture collection (Rockville, Md.) and grown as a monolayer using folate free 1640 RPMI medium containing (Gibco, N.Y.) 10% heat-inactivated fetal bovine serum (Atlanta Biological, Ga.) and 1% penicillin streptomycin (Gibco, N.Y.) in a 5% carbon dioxide: 95% air-humidified atmosphere at 37° C. for at least six passages before they were used for the assays.
KB cells that overexpress FR-α were seeded in 24-well (100,000 cells/well) Falcon plates (BD Biosciences, Calif.) and allowed to form monolayers over a period of 12 hours. […] After incubating for 1 hour at 37° C., cells were rinsed with PBS (3×0.5 mL, Gibco, N.Y.) to remove any unbound radioactive materials. After adding 0.25 M sodium hydroxide (0.5 mL) and incubating for 12 hours at 4° C., cells were transferred into individual scintillation vials containing Ecolite scintillation cocktail (3.0 mL, MP Biomedicals, Ohio) and counted in a liquid scintillation analyzer (Packard). The relative binding affinities were calculated using a plot of % cell bound radioactivity versus the log concentration of the test article using GraphPad Prism 4.

[3] = tested on: KB tumor xenografts (folate receptor positive); assay: Whole body imaging and tissue biodistribution in mice bearing folate receptor-positive tumor xenografts; assay type: in vivo; settings: nude mice, KB tumors, 10 nmol intravenously, 2.5 hours
Experimental: as §2
(§3) Athymic female nude (nu/nu) mice (5 weeks old, 18-20 g) were purchased from Harlan Laboratories (Indianapolis, Ind.) and maintained on gamma-irradiated folate-deficient special diet (Teklad, Wis.) for at least 2 weeks before the start of the study. […]
(§4) Seven-week-old female nu/nu mice were inoculated subcutaneously with KB cells (1.0×10^6/mouse in folate free RPMI 1640 medium) on the shoulder. Growth of the tumors was measured in perpendicular directions every 2 days using a caliper (body weights were monitored on the same schedule), and the volumes of the tumors were calculated as 0.5×L×W^2 (L=longest axis and W=axis perpendicular to L in millimeters). […]
(§5) Following whole body imaging, animals were dissected and selected tissues (heart, lung, liver, spleen, kidneys, stomach, small intestine, large intestine, muscle, skin, tumor) were analyzed for fluorescence activity using IVIS imager as before. […]

[4] = tested on: KB tumor xenografts (folate receptor positive); assay: Comparative whole body imaging and tissue biodistribution with folate derived near IR agents; assay type: in vivo; settings: nude mice, KB tumors
Experimental: as §2
as §3, with “nude” for “nude (nu/nu)”, “study. Animals were housed 5/cage in a barrier, pathogen-free cloaked rack.” for “study.”
as §4, with “measured In” for “measured in”, “as 0.5×L×[…]” for “as 0.5×L×W^2”
as §5

[5] = tested on: A549 tumor xenografts (folate receptor negative); assay: Whole body imaging and biodistribution in mice bearing folate receptor-negative tumor xenografts; assay type: in vivo
Experimental: as §2, with “A549” for “KB”, “alveolar basal epithelial carcinoma” for “human nasopharyngeal”, “using” for “using folate free”
Athymic female nude (nu/nu) mice (6 weeks old, 18-20 g) were purchased from Harlan Laboratories (Indianapolis, Ind.) and maintained on normal diet (Teklad, Wis.). Animals were housed 5/cage in a barrier, pathogen-free cloaked rack. Autoclaved tap water and food were given as needed. The animals were housed in a sterile environment on a standard 12 hours light-dark cycle for the duration of the study. Mice were identified individually by ear punch. All animal procedures were approved by Purdue Animal Care and Use Committee. Animal care and studies were performed according to national and international guidelines for the humane treatment of animals.
Seven-week-old female nu/nu mice were inoculated subcutaneously with A549 cells (1.0×10^6/mouse in RPMI 1640 medium) on the shoulder. Growth of the tumors was measured in perpendicular directions every 2 days using a caliper (body weights were monitored on the same schedule), and the volumes of the tumors were calculated as 0.5×L×W^2(L=longest axis and W=axis perpendicular to L in millimeters). Once tumors reached between 400 and 500 mm^3 in volume, animals (6 mice/group) were intravenously injected with 10 nmol of OTL-0038 in phosphate buffered saline (100 μL). After 2.5 h, animals were sacrificed by CO2 asphyxiation. Whole body imaging (intact tumor) experiments were then performed using a Caliper IVIS Lumina II Imaging Station with Living Image 4.0 software (PerkinElmer Inc, Mass.). Settings for imaging:-lamp level: medium; excitation: 745 nm; emission: ICG (indocyanine green); epi illumination; binning: 4 (M), FOV=12.5; f-stop=2; acquisition time=1 s.
Following whole body imaging, animals were dissected and selected tissues (heart, lung, liver, spleen, kidneys, stomach, small intestine, large intestine, muscle, skin, tumor) were analyzed for fluorescence activity using IVIS imager as before. Settings for imaging:-lamp level: medium; excitation: 745 nm; emission: ICG; epi illumination; binning: 4 (M), FOV=12.5; f-stop=2; acquisition time=1 s.

[6] = tested on: ovarian cancer malignant lesions; settings: human ovarian cancer patients, intra-operative; cited from earlier work

T1 sequence (P15328 25-234): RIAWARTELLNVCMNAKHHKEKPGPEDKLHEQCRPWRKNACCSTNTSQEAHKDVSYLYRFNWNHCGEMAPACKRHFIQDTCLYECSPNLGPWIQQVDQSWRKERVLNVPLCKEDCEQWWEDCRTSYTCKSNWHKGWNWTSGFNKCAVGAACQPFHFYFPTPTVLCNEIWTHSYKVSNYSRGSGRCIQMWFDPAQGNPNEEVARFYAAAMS

For CC1(C)C(=CC=C2CCCC(C=CC3=[N+](CCCCS(=O)(=O)[O-])c4ccc(S(=O)(=O)O)cc4C3(C)C)=C2Oc2ccc(C[C@H](NC(=O)c3ccc(NCc4cnc5nc(N)[nH]c(=O)c5n4)cc3)C(=O)O)cc2)N(CCCCS(=O)(=O)O)c2ccc(S(=O)(=O)O)cc21 [OTL-0038, PTE-L-Tyr-S0456], the “Achiral HPLC” value ([1]; 5, 270 nm) was 95.88%, the “Achiral HPLC” value ([1]; 5, 774 nm) was 94.29% and the “Achiral HPLC” value ([1]; 25, 270 nm) was 94.43%. For the same compound, the “Achiral HPLC” value ([1]; 25, 774 nm) was 94.05%, the “Achiral HPLC” value ([1]; 40, 270 nm) was 87.17% and the “Achiral HPLC” value ([1]; 40, 774 nm) was 93.56%. For the same compound, the “Achiral HPLC” value ([1]; −20, 270 nm) was 95.80%, the “Achiral HPLC” value ([1]; −20, 774 nm) was 94.59% and the “stability of the liquid” value ([1]; 270 nm) was “seems stable”. The “stability of the liquid” value ([1]; 774 nm) was “reasonably stable with a small degradation in purity”, the “loss of the liquid” value ([1]; 40° C., 270 nm) was 8.6% and the “loss of the liquid” value ([1]; 40° C., 774 nm) was 1%. The “loss of the liquid” value ([1]; room temperature, 270 nm) was “about 1.4%”, the “loss of the liquid” value ([1]; room temperature, 774 nm) was 0.5% and the “Achiral HPLC” value ([2]; 5, 270 nm) was 95.88%. The “Achiral HPLC” value ([2]; 5, 774 nm) was 94.29%, the “Achiral HPLC” value ([2]; 25, 270 nm) was 94.43% and the “Achiral HPLC” value ([2]; 25, 774 nm) was 94.05%. For the same compound, the “Achiral HPLC” value ([2]; 40, 270 nm) was 87.17%, the “Achiral HPLC” value ([2]; 40, 774 nm) was 93.56% and the “Achiral HPLC” value ([2]; −20, 270 nm) was 95.80%. The “Achiral HPLC” value ([2]; −20, 774 nm) was 94.59%, the “loss of the lyophilized product” value ([2]; 270 nm) was 4.5% and the “loss of the lyophilized product” value ([2]; 774 nm) was 1.1%. The “stability of the lyophilized product” value ([2]; less than room temperature) was “stable at less than room temperature for the first month”, the “stability of the lyophilized product” value ([2]; room temperature) was “stable at the first month” and the “competition with [3H] folic acid” value (folate receptors; KB cells) was “competed well”. The Kd (folate receptors) was 10.4 nM, the Relative binding affinity (folate receptors) was 0.71 and the “Whole body imaging: accumulation of fluorescence” value (“Whole body imaging: accumulation” below) [3] was “accumulated predominantly in the folate receptor positive tumors, with no substantial fluorescence activity in the other tissues”. The “Tissue biodistribution: fluorescence in dissected tissues” value ([3]; ex vivo IVIS) was “highest fluorescence intensity was observed in FR-positive tumors with no accumulation in the other tissues except the kidneys; also recorded: mainly accumulated in folate receptor positive tumor xenografts and kidneys”, the “tumor fluorescence intensity, direct comparison” value ([4]; 10 nmol) was “brighter (higher) than the mice treated with the other folate-conjugated near IR dyes” and the “Whole body imaging: accumulation” value ([4]; 10 nmol intravenously, 2.5 hours) was “accumulated predominantly in the folate receptor positive tumors”. For the same compound, the “tumor uptake (ex vivo fluorescence)” value ([5]; A549 folate receptor negative tumors, 10 nmol, 2.5 h) was “no fluorescence was observed in folate receptor negative tumors”, the “in vivo specificity for folate receptor” value ([5]; conclusion of the folate receptor-negative tumor study) was “highly specific for folate receptor” and the “kidney uptake (ex vivo fluorescence)” value ([5]; folate receptor-positive kidneys, 10 nmol, 2.5 h) was “high kidney uptake”. For the same compound, the “Whole body imaging: accumulation” value ([5]; nude mice, A549 tumors, 10 nmol intravenously, 2.5 h) was “did not accumulated in the folate receptor negative tumors”.
In the case of CC1(C)C(=CC=C2CCCC(C=CC3=[N+](CCCCS(=O)(=O)[O-])c4ccc(S(=O)(=O)O)cc4C3(C)C)=C2Oc2ccc(C[C@@H](NC(=O)c3ccc(NCc4cnc5nc(N)[nH]c(=O)c5n4)cc3)C(=O)O)cc2)N(CCCCS(=O)(=O)O)c2ccc(S(=O)(=O)O)cc21 [OTL-0039, PTE-D-Tyr-S0456], the “affinity for folate receptor, comparison in words” value (folate receptors; KB cells) is reported as “lower affinity for folate receptor when compared to folic acid and OTL-0038”, the Kd (folate receptors) is reported as 81.8 nM and the Relative binding affinity (folate receptors) is reported as 0.09.
For “folate-ethelenediamine-fluorescein isothiocyanate [EC17]”, the “malignant lesions removed with the aid of the dye than without it” value [6] is listed as roughly 5 ×.
